# Measured values taken from patent US11559579B2 (HealthPartners Research & Education, priority 2014, dated 2023).
# How the values were obtained:
# [1] = system: Moderate Controlled Cortical Impact Injury Model (TBI); assay: Beam walk motor function test after controlled cortical impact; format: in vivo, Sprague Dawley rats; conditions: day 7 post-injury vs day 1 baseline and vs saline (vehicle) rats on day 7; intranasal, first dose 4 hours post-injury, then once a day; FIG. 1
# From the text: (§1) 2007 Mar. 15; 160(2):187-96. Onyszchuk, G., et al., J. Neurosci. Methods, 2007, 160(2): p.
# [2] = system: Moderate Controlled Cortical Impact Injury Model (TBI); assay: Peg walk motor function test after controlled cortical impact; format: in vivo, Sprague Dawley rats; conditions: day 7 vs day 1 baseline and vs saline (vehicle) rats on day 7; intranasal, once a day; FIG. 2
# From the text: as §1
# [3] = system: Moderate Controlled Cortical Impact Injury Model (TBI); assay: Morris water maze probe trial after controlled cortical impact; format: in vivo, Sprague Dawley rats; conditions: days 11-14 post-injury
# From the text: as §1
# [4] = system: neurons in the hippocampus; assay: NeuN immunohistochemistry of hippocampus post-injury; format: in vivo, Sprague Dawley rats; conditions: after sacrifice on day 8 post-injury; vs saline rats; FIG. 8a/8b
# From the text: as §1
# FIG. 8a illustrates neuronal viability in the saline rat hippocampus.
# M2 microglia (CD206) = assay: M2 microglia marker CD206 expression post-injury; format: in vivo, Sprague Dawley rats; conditions: sacrifice on day 8 post-injury; vs intranasal saline rats; FIG. 3
# From the text: as §1
# (§2) Microglia are the macrophages of the brain, with two dominant phenotypes: M1 and M2.
# (§3) M1 microglia are classically activated pro-inflammatory cells. M1 microglia are useful in the initial healing process, but persistent activation results in neuronal cell death due to production of reactive oxygen species. M2 microglia are anti-inflammatory, pro-healing macrophages.
# M1 microglia (CD86) = assay: M1 microglia marker CD86 expression post-injury; format: in vivo, Sprague Dawley rats; conditions: sacrifice on day 8 post-injury; vs saline rats; FIG. 4
# From the text: as §1, §2, §3
# [5] = intranasal insulin; normal adults and patients with Alzheimer's disease; cited from earlier work
substance,measurement,setting,value
insulin,time to cross the beam (beam walk),[1],significant decrease in time
same,peg walk motor function,[2],positive trend towards improved motor function
same,search strategy (Morris water maze probe trial),"[3]; insulin vs saline (vehicle) treated rats, FIG. 7",saline (vehicle) treated rats utilized significantly less targeted search methods (looping) than insulin rats
same,number of crosses of the target island region (Morris water maze probe trial),"[3]; vs saline (vehicle) treated rats, FIG. 6",significant increase in the number of crosses of the target island region
same,neuronal viability in the hippocampus (NeuN),[4],improved neuronal viability in the hippocampus
same,"M2 microglia, expression of CD206",M2 microglia (CD206),significant increase in M2 microglia
same,"M1 microglia markers, expression of CD86",M1 microglia (CD86),no significant increase in expression of M1 microglia markers
same,memory,[5],improve memory
